Data on eight compounds can be found in patent US20160187553A1, “METHOD OF MANUFACTURING POLARIZING PLATE, POLARIZING PLATE MANUFACTURED USING THE METHOD, AND LIQUID CRYSTAL DISPLAY DEVICE” (Konica Minolta, Inc., priority 2010, published 2016).

Data set [1] is described as follows: logP of additives A and B of the protective films.
For data set [2] the following is noted: reference liquid; cited from earlier work.

Structures are written as SMILES. Like-named read-outs stand apart in the source and are kept apart here.

As a reminder, the logP is the decadic logarithm of the partition coefficient of the neutral form, usually between octanol and water. Lower therefore signals lower lipophilicity.

In data set [1], `CCC(COC(=O)c1ccccc1)(COC(=O)c1ccccc1)COC(=O)c1ccccc1` [Compound 16] registered a lipophilicity (logP) of 7.9.
For `O=P(Oc1ccccc1)(Oc1ccccc1)Oc1ccccc1-c1ccccc1` [BDP, Biphenyldiphenyl phosphate], the logP in data set [1] (additive of protective film) stood at 7.3.
`ICI` [diiodomethane]: in data set [2], the γLd is reported as 51.0 mN/m, the γLh is reported as 0.0 mN/m and the γLp was 0.0 mN/m.
Take `O=C(OCC(COC(=O)c1ccccc1)(COC(=O)c1ccccc1)COC(=O)c1ccccc1)c1ccccc1` [PETB, pentaerythritol-tetrabenzoate]: in data set [1], the logP was found to be 9.9.
In the case of `O` [water], in data set [2], the γLd is recorded as 30.4 mN/m, the γLh is 42.4 mN/m and the γLp is on record as 0.0 mN/m.
As for `O=P(Oc1ccccc1)(Oc1ccccc1)Oc1ccccc1` [TPP, Triphenyl phosphate], the logP in data set [1] is 5.6.
Consider `CCOC(=O)COC(=O)c1ccccc1C(=O)OCC` [EPEG, Ethylphthalyl ethylglycolate], for which the logP in data set [1] came out at 2.3.
Regarding `C[N+](=O)[O-]` [nitromethane], in data set [2], the γLd is recorded as 18.3 mN/m, the γLh is reported as 0.0 mN/m and the γLp was 17.7 mN/m.
